# Measured values published in patent US9593110B2, “Neprilysin inhibitors” (Theravence Biopharma R&D IP, LLC, priority 2014, dated 2017).
# Target: human NEP (Homo sapiens (Human), UniProt P08473)
# Assay: In vitro enzyme inhibition assay at human NEP
# Conditions: recombinant human NEP, fluorogenic peptide substrate, 37° C.; for Ki: pKi
# Sequence of human NEP (P08473 52-750): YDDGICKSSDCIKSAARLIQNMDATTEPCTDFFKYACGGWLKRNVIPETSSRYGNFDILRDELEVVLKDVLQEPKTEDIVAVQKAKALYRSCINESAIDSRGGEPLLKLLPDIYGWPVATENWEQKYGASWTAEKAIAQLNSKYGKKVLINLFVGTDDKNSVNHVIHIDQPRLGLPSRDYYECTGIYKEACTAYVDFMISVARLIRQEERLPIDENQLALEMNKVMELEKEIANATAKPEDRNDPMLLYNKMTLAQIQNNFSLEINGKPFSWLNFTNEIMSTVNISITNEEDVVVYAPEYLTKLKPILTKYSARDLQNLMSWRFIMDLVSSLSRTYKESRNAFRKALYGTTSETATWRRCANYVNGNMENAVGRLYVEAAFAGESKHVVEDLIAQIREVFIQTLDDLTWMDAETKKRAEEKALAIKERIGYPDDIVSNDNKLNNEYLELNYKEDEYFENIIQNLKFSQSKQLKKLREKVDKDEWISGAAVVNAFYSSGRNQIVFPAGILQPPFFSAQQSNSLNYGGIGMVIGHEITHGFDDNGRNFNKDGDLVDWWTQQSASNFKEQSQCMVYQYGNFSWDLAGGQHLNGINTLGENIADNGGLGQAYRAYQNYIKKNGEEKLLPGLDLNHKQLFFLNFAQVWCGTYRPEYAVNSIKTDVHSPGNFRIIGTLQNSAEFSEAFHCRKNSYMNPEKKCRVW
Compound,Ki,pKi
"CC(=O)N1CCC(C(C[C@@H](Cc2ccc(-c3ccccc3)cc2)NC(=O)c2cnn[nH]2)C(=O)O)CC1 (stereo in doubt) [Example 60, (S)-2-(1-Acetylpiperidin-4-yl)-5-biphenyl-4-yl-4-[(3H-[1,2,3]triazole-4-carbonyl)amino]pentanoic Acid]",3.16 to 10 nM,–
"NCCCC[C@H](N)C(=O)N[C@H](C[C@@H](Cc1ccc(-c2cc(Cl)ccc2F)cc1)NC(=O)c1cnn[nH]1)C(=O)O [Example 56, (2R,4R)-5-(5′-Chloro-2′-fluorobiphenyl-4-yl)-2-((S)-2,6-diaminohexanoylamino)-4-[(3H-[1,2,3]triazole-4-carbonyl)amino]pentanoic Acid]",1.26 to 3.16 nM,–
"CC(=O)NC[C@H](C[C@@H](Cc1ccc(-c2cc(Cl)ccc2F)cc1)NC(=O)c1c[nH]nn1)C(=O)O [Example 28, (2S,4S)-2-(Acetylaminomethyl)-5-(5′-chloro-2′-fluoro-biphenyl-4-yl)-4-[(1H-[1,2,3]triazole-4-carbonyl)amino]pentanoic Acid]",–,≧9.0
"COC[C@H](C[C@@H](Cc1ccc(-c2cccc(Cl)c2)cc1)NC(=O)c1n[nH]c(C(F)(F)F)n1)C(=O)O [Example 4-1, (2S,4S)-5-(3′-Chlorobiphenyl-4-yl)-2-methoxymethyl-4-[(5-trifluoromethyl-1H-[1,2,4]triazole-3-carbonyl)amino]pentanoic acid]",–,≧9.0
"O=C(N[C@H](Cc1ccc(-c2cc(Cl)ccc2F)cc1)C[C@@H](Cc1noc(=O)[nH]1)C(=O)O)c1cnn[nH]1 [Example 66, (2S,4S)-5-(5′-Chloro-2′-fluorobiphenyl-4-yl)-2-(5-oxo-4,5-dihydro-[1,2,4]oxadiazol-3-ylmethyl)-4-[(3H-[1,2,3]triazole-4-carbonyl)amino]pentanoic Acid]",1.26 to 3.16 nM,–
"N#CC[C@H](C[C@@H](Cc1ccc(-c2cc(Cl)ccc2F)cc1)NC(=O)c1c[nH]nn1)C(=O)O [Example 51, (2S,4S)-5-(5′-chloro-2′-fluorobiphenyl-4-yl)-2-cyanomethyl-4-[(3H-[1,2,3]triazole-4-carbonyl)amino]pentanoic acid]",1.26 to 3.16 nM,–
"CC(C)c1coc(C(=O)N[C@H](Cc2ccc(-c3cc(Cl)ccc3F)cc2)C[C@@H](CCN)C(=O)O)n1 [Example 24-1, (2R,4S)-2-(2-Aminoethyl)-5-(5′-chloro-2′-fluorobiphenyl-4-yl)-4-[(4-isopropyloxazole-2-carbonyl)amino]pentanoic acid]",3.16 to 10 nM,–
"N[C@H](C[C@@H](Cc1ccc(-c2cc(Cl)ccc2F)cc1)NC(=O)c1c[nH]nn1)C(=O)O [Example 13, (2R,4R)-2-Amino-5-(5′-chloro-2′-fluorobiphenyl-4-yl)-4-[(1H-[1,2,3]triazole-4-carbonyl)amino]pentanoic Acid]",≤ 1 nM,–
"CCOC[C@H](C[C@@H](Cc1ccc(-c2cccc(Cl)c2)cc1)NC(=O)c1c[nH]nn1)C(=O)O [Example 9-1, (2S,4S)-5-(3′-Chlorobiphenyl-4-yl)-2-ethoxymethyl-4-[(1H-[1,2,3]triazole-4-carbonyl)amino]pentanoic acid]",–,≧9.0
"O=C(N[C@H](Cc1ccc(-c2cc(Cl)ccc2F)cc1)C[C@@H](CNCC(F)F)C(=O)O)c1cnn[nH]1 [Example 82a, (2S,4S)-5-(5′-Chloro-2′-fluorobiphenyl-4-yl)-2-[(2,2-difluoroethylamino)methyl]-4-[(3H-[1,2,3]triazole-4-carbonyl)amino]pentanoic Acid]",≤ 1 nM,–
"NCCCC(=O)NC[C@H](C[C@@H](Cc1ccc(-c2cc(Cl)ccc2F)cc1)NC(=O)c1cnn[nH]1)C(=O)O [Example 68, (2S,4S)-2-[(4-Aminobutyrylamino)methyl]-5-(5′-chloro-2′-fluorobiphenyl-4-yl)-4-[(3H-[1,2,3]triazole-4-carbonyl)amino]pentanoic acid]",3.16 to 10 nM,–
"CN(C)CCOC[C@H](C[C@@H](Cc1ccc(-c2cc(Cl)ccc2F)cc1)NC(=O)c1c[nH]nn1)C(=O)O [Example 100, (2S,4S)-5-(5′-Chloro-2′-fluorobiphenyl-4-yl)-2-(2-dimethylamino-ethoxymethyl)-4-[(1H-[1,2,3]triazole-4-carbonyl)amino]pentanoic Acid]",≤ 1 nM,–
"CC(=O)N[C@H](C[C@@H](Cc1ccc(-c2ccccc2)cc1)NC(=O)c1c[nH]nn1)C(=O)O [Example 26, (2R,4R)-2-Acetylamino-5-biphenyl-4-yl-4-[(1H-[1,2,3]triazole-4-carbonyl)amino]pentanoic Acid]",3.16 to 10 nM,–
"COC(=O)N[C@H](C[C@@H](Cc1ccc(-c2cc(Cl)ccc2F)cc1)NC(=O)c1coc(=O)[nH]1)C(=O)O [Example 30-11, (2R,4R)-5-(5′-Chloro-2′-fluorobiphenyl-4-yl)-2-methoxycarbonylamino-4-[(2-oxo-2,3-dihydro-oxazole-4-carbonyl)amino]pentanoic acid]",–,≧9.0
"N[C@H](C[C@@H](Cc1ccc(-c2cc(Cl)ccc2F)cc1)NC(=O)c1cc(O)no1)C(=O)O [Example 16-28, (2R,4R)-2-Amino-5-(5′-chloro-2′-fluorobiphenyl-4-yl)-4-[(3-hydroxyisoxazole-5-carbonyl)amino]pentanoic acid]",–,≧9.0
"NCC(=O)NC[C@H](C[C@@H](Cc1ccc(-c2cc(Cl)ccc2F)cc1)NC(=O)c1cnn[nH]1)C(=O)O [Example 44-1, (2S,4S)-2-[(2-Aminoacetylamino)methyl]-5-(5′-chloro-2′-fluorobiphenyl-4-yl)-4-[(3H-[1,2,3]triazole-4-carbonyl)amino]pentanoic acid]",–,≧9.0

Compound,Ki,pKi
"O=C(N[C@H](Cc1ccc(-c2cc(Cl)ccc2F)cc1)C[C@@H](CN1CC(F)C1)C(=O)O)c1cnn[nH]1 [Example 91b, (2S,4S)-5-(5′-Chloro-2′-fluorobiphenyl-4-yl)-2-(3-fluoroazetidin-1-ylmethyl)-4-[(3H-[1,2,3]triazole-4-carbonyl)amino]pentanoic Acid]",≤ 1 nM,–
"CCOC[C@H](C[C@@H](Cc1ccc(-c2cc(Cl)ccc2F)cc1)NC(=O)c1cc(C(C)=O)n[nH]1)C(=O)O [Example 7-3, (2S,4S)-4-[(5-Acetyl-2H-pyrazole-3-carbonyl)-amino]-5-(5′-chloro-2′-fluorobiphenyl-4-yl)-2-ethoxymethylpentanoic acid]",–,≧9.0
"CCOC[C@H](C[C@@H](Cc1ccc(-c2cc(Cl)ccc2F)cc1)NC(=O)c1noc(=O)[nH]1)C(=O)O [Example 7-10, (2S,4S)-5-(5′-Chloro-2′-fluorobiphenyl-4-yl)-2-ethoxymethyl-4-[(5-oxo-4,5-dihydro-[1,2,4]oxadiazole-3-carbonyl)amino]pentanoic acid]",–,≧9.0
"O=C(N[C@H](Cc1ccc(-c2cc(Cl)ccc2F)cc1)C[C@@H](CN1CCC1)C(=O)O)c1cnn[nH]1 [Example 84b, (2S,4S)-2-Azetidin-1-ylmethyl-5-(5′-chloro-2′-fluorobiphenyl-4-yl)-4-[(3H-[1,2,3]triazole-4-carbonyl)amino]pentanoic Acid]",≤ 1 nM,–
"O=C(N[C@H](Cc1ccc(-c2cc(Cl)ccc2F)cc1)CC(C(=O)O)c1cccnc1)c1cnn[nH]1 (single isomer, unassigned) [Example 77a]",3.16 to 10 nM,–
"N[C@H](C[C@@H](Cc1ccc(-c2cc(Cl)ccc2F)cc1)NC(=O)c1noc(=O)[nH]1)C(=O)O [Example 16-16, (2R,4R)-2-Amino-5-(5′-chloro-2′-fluorobiphenyl-4-yl)-4-[(5-oxo-4,5-dihydro-[1,2,4]oxadiazole-3-carbonyl)amino]pentanoic acid]",–,≧9.0
"NCC[C@H](C[C@@H](Cc1ccc(-c2cc(Cl)ccc2F)cc1)NC(=O)c1cnn[nH]1)C(=O)O [Example 24-2, (2R,4S)-2-(2-Aminoethyl)-5-(5′-chloro-2′-fluorobiphenyl-4-yl)-4-[(3H-[1,2,3]triazole-4-carbonyl)amino]pentanoic acid]",1.26 to 3.16 nM,–
"NC[C@H](C[C@@H](Cc1ccc(-c2ccccc2)cc1)NC(=O)c1c[nH]nn1)C(=O)O [Example 22, (2S,4S)-2-Aminomethyl-5-biphenyl-4-yl-4-[(1H-[1,2,3]triazole-4-carbonyl)amino]pentanoic Acid]",1.26 to 3.16 nM,–
"O=C(N[C@H](Cc1ccc(-c2ccccc2)cc1)CC(C(=O)O)C1CCOCC1)c1cnn[nH]1 (stereo in doubt) [Example 58, (S)-5-Biphenyl-4-yl-2-(tetrahydropyran-4-yl)-4-[(3H-[1,2,3]triazole-4-carbonyl)amino]pentanoic Acid]",3.16 to 10 nM,–
"COC(=O)N[C@H](C[C@@H](Cc1ccc(-c2cc(Cl)ccc2F)cc1)NC(=O)c1ncco1)C(=O)O [Example 30-3, (2R,4R)-5-(5′-Chloro-2′-fluoro-biphenyl-4-yl)-2-methoxycarbonylamino-4-[(oxazole-2-carbonyl)amino]pentanoic acid]",–,≧9.0
"NC(=O)C[C@H](C[C@@H](Cc1ccc(-c2ccccc2)cc1)NC(=O)c1cnn[nH]1)C(=O)O [Example 53, (2S,4S)-5-Biphenyl-4-yl-2-carbamoylmethyl-4-[(3H-[1,2,3]triazole-4-carbonyl)amino]pentanoic Acid]",–,≧9.0
"Cc1cnc(C(=O)N[C@H](Cc2ccc(-c3cc(Cl)ccc3F)cc2Cl)C[C@@H](N)C(=O)O)o1 [Example 18-3, (2R,4R)-2-Amino-5-(3,5′-dichloro-2′-fluorobiphenyl-4-yl)-4-[(5-methyloxazole-2-carbonyl)amino]pentanoic acid]",–,≧9.0
"COC[C@H](C[C@@H](Cc1ccc(-c2cc(Cl)ccc2F)cc1)NC(=O)c1noc(=O)[nH]1)C(=O)O [Example 2-11, (2S,4S)-5-(5′-Chloro-2′-fluorobiphenyl-4-yl)-2-methoxymethyl-4-[(5-oxo-4,5-dihydro-[1,2,4]oxadiazole-3-carbonyl)amino]pentanoic acid]",–,≧9.0
"CC1(O)CN(C[C@@H](C[C@@H](Cc2ccc(-c3cc(Cl)ccc3F)cc2)NC(=O)c2c[nH]nn2)C(=O)O)C1 [Example 101c, (2R,4S)-5-(5′-Chloro-2′-fluorobiphenyl-4-yl)-2-(3-hydroxy-3-methylazetidin-1-ylmethyl)-4-[(1H-[1,2,3]triazole-4-carbonyl)amino]pentanoic Acid]",1.26 to 3.16 nM,–
"Cc1nc(C(=O)N[C@H](Cc2ccc(-c3cc(Cl)ccc3F)cc2)C[C@@H](CN)C(=O)O)co1 [Example 21-5, (2S,4S)-2-Aminomethyl-5-(5′-chloro-2′-fluorobiphenyl-4-yl)-4-[(2-methyloxazole-4-carbonyl)amino]pentanoic acid]",1.26 to 3.16 nM,–
